According to ChEMBL document CHEMBL4699558, “Lead optimization of 8-(methylamino)-2-oxo-1,2-dihydroquinolines as bacterial type II topoisomerase inhibitors” (Bioorg Med Chem, 2020):
≈ marks a conversion by molar mass, not a printed value.

Experiments:
[1] = system: Peptostreptococcus anaerobius; test: Antibacterial activity against Peptostreptococcus anaerobius ATCC 27337 by CLSI method; type: functional
[2] = system: Bacteroides fragilis; test: Antibacterial activity against Bacteroides fragilis ATCC 25285 by CLSI method; type: functional
[3] = system: Prevotella melaninogenica; test: Antibacterial activity against Prevotella melaninogenica JCM6325 by CLSI method; type: functional
[4] = system: Porphyromonas gingivalis; test: Antibacterial activity against Porphyromonas gingivalis JCM8525 by CLSI method; type: functional
[5] = system: Fusobacterium nucleatum; test: Antibacterial activity against Fusobacterium nucleatum JCM8532 by CLSI method; type: functional
[6] = system: Streptococcus pneumoniae; test: Antibacterial activity against genotype penicillin-resistant Streptococcus pneumoniae by CLSI method; type: functional
[7] = system: Staphylococcus aureus; test: Antibacterial activity against Methicillin-resistant Staphylococcus aureus by CLSI method; type: functional
[8] = system: Staphylococcus aureus; test: Antibacterial activity against hospital-acquired Methicillin -resistant Staphylococcus aureus ATCC BAA-811 by CLSI method; type: functional
[9] = system: Staphylococcus aureus; test: Antibacterial activity against community-acquired Methicillin -resistant Staphylococcus aureus ATCC BAA-1556 by CLSI method; type: functional
[10] = system: Escherichia coli; test: Antibacterial activity against Escherichia coli ATCC 25922 by CLSI method; type: functional
[11] = system: Staphylococcus aureus; test: Antibacterial activity against Staphylococcus aureus ATCC 29213 by CLSI method; type: functional
[12] = system: Enterococcus faecium; test: Antibacterial activity against Enterococcus faecium ATCC 35667 by CLSI method; type: functional
[13] = system: Enterococcus faecium; test: Antibacterial activity against vancomycin-resistant Enterococcus faecium ATCC 51559 by CLSI method; type: functional
[14] = system: Enterococcus faecalis; test: Antibacterial activity against Enterococcus faecalis ATCC 29212 by CLSI method; type: functional
[15] = system: Enterococcus faecalis; test: Antibacterial activity against vancomycin-resistant Enterococcus faecalis ATCC 51575 by CLSI method; type: functional
[16] = system: Streptococcus pneumoniae; test: Antibacterial activity against Streptococcus pneumoniae ATCC 49619 by CLSI method; type: functional
[17] = system: Streptococcus anginosus; test: Antibacterial activity against Streptococcus anginosus ATCC 33397 by CLSI method; type: functional
[18] = system: Enterococcus; test: Antibacterial activity against Vancomycin-resistant Enterococcus by CLSI method; type: functional
[19] = biological target: DNA gyrase (Escherichia coli, UniProt P0AES4+P0AES6); test: Inhibition of Escherichia coli DNA gyrase by measuring supercoiling activity incubated for 60 mins by fluorescence based assay; type: protein-complex assay
[20] = Inhibition of Escherichia coli topoisomerase IV by measuring relaxation activity incubated for 30 mins by fluorescence based assay
[21] = system: Escherichia coli; test: Antibacterial activity against Escherichia coli ATCC 25922 in presence of PAbetaN by CLSI method; type: functional
[22] = system: Haemophilus influenzae; test: Antibacterial activity against Haemophilus influenzae ATCC 43095 by CLSI method; type: functional
[23] = system: Clostridioides difficile; test: Antibacterial activity against Clostridioides difficile ATCC 700057 by CLSI method; type: functional
[24] = biological target: DNA topoisomerase 2-alpha (Homo sapiens, UniProt P11388); test: Inhibition of human topoisomerase 2alpha; type: ADME
[25] = Cytotoxicity against human HepG2 cells assessed as reduction in cell viability at 10 uM incubated for 48 hrs by CCK-8 assay
[26] = Cytotoxicity against human HepG2 cells assessed as reduction in cell viability at 50 uM incubated for 48 hrs by CCK-8 assay
[27] = system: Escherichia coli; test: Antibacterial activity against Escherichia coli ATCC 25922 assessed as reduction in bacterial cell growth incubated for 18 hrs by CSLI based broth microdilution method; type: functional
[28] = system: Staphylococcus aureus; test: Antibacterial activity against Staphylococcus aureus ATCC 29213 assessed as reduction in bacterial cell growth incubated for 18 hrs by CSLI based broth microdilution method; type: functional
[29] = biological target: Voltage-gated inwardly rectifying potassium channel KCNH2 (Homo sapiens, UniProt Q12809); test: Inhibition of human ERG expressed in CHO cells by Q-patch clamp assay
Voltage-gated inwardly rectifying potassium channel KCNH2, sequence (Q12809 whole entry): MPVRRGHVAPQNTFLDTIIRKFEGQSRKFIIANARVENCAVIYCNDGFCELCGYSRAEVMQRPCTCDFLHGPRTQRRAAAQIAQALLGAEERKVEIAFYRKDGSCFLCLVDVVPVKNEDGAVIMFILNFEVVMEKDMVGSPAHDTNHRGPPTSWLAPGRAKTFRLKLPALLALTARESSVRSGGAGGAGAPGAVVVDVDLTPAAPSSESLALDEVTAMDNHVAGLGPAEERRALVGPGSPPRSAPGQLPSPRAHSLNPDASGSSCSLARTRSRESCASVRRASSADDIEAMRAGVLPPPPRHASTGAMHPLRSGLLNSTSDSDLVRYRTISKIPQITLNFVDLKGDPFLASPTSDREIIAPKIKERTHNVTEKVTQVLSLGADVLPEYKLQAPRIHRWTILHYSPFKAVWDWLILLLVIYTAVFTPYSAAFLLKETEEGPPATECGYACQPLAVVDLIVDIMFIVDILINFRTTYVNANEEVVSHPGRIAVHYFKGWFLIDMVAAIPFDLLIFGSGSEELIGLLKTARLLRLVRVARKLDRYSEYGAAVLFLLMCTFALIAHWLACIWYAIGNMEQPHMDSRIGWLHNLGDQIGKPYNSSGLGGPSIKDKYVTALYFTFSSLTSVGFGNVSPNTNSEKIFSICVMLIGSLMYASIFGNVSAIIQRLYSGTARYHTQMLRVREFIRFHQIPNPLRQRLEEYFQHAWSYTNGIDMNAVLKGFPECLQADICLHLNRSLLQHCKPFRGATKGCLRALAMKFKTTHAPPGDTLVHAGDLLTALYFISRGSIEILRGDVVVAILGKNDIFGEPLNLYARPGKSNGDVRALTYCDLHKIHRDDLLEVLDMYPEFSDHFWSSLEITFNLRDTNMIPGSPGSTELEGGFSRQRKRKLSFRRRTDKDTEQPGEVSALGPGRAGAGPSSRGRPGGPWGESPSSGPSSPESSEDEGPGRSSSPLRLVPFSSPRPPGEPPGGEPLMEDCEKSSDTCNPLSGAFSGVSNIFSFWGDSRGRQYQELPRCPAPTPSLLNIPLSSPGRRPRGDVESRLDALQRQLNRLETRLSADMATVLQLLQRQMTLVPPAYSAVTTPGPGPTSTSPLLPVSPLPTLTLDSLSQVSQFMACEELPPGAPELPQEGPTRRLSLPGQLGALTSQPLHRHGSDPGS

DNA topoisomerase 2-alpha, sequence (P11388 whole entry): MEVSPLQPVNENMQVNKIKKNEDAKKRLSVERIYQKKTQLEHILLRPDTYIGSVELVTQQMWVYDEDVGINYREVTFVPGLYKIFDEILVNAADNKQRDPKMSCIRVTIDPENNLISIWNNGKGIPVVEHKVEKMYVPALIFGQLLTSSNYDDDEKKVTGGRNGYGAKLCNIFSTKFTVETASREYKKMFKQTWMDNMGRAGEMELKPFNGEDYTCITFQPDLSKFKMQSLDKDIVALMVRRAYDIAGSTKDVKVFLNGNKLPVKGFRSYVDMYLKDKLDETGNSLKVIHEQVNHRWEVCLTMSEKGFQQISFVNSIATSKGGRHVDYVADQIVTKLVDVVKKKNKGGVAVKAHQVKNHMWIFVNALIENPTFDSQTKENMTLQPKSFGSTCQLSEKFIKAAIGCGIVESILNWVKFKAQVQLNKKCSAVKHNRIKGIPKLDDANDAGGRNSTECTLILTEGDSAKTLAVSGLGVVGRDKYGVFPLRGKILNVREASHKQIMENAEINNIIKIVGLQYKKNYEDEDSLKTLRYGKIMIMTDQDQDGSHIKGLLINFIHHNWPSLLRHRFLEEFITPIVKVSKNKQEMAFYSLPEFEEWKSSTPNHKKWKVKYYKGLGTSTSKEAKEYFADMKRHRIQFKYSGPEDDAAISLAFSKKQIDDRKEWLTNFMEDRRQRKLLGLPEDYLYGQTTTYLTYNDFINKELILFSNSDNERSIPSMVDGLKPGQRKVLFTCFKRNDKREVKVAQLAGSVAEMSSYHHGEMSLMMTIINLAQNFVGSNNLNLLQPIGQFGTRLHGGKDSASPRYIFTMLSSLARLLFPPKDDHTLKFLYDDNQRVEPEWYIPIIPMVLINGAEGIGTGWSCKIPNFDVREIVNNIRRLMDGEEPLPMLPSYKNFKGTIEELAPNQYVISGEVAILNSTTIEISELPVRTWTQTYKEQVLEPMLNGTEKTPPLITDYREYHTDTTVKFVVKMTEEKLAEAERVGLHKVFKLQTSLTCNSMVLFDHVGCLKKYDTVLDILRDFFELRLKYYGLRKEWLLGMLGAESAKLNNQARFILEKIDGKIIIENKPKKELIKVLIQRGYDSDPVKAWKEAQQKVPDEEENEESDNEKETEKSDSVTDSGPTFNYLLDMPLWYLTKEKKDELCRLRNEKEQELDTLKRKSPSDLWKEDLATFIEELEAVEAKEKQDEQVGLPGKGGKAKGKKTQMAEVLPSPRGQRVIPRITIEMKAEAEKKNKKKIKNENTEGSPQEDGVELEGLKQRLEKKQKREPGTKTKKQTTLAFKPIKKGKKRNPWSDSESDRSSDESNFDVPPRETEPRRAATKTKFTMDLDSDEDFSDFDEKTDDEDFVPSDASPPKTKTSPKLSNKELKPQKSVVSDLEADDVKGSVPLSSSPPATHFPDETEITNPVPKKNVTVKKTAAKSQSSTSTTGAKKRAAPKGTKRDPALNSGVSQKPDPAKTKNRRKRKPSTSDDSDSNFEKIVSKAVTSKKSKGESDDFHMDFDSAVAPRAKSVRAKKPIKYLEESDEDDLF

CO/N=C(\C(=O)N[C@@H]1C(=O)N2C(C(=O)O)=C(CSc3nc(=O)c(O)nn3C)CS[C@H]12)c1csc(N)n1 [CEFTRIAXONE]
MIC [1]: 0.5 µg/mL (≈ 0.902 µM)
MIC [2]: 64 µg/mL (≈ 115 µM)
MIC [3]: 1 µg/mL (≈ 1.8 µM)
MIC [4]: ≤ 0.12 µg/mL
MIC [5]: 0.5 µg/mL (≈ 0.902 µM)
MIC50 [6]: 1 µg/mL (≈ 1.8 µM)
MIC90 [6]: 4 µg/mL (≈ 7.21 µM)

CN(C)c1cc(NC(=O)CNC(C)(C)C)c(O)c2c1C[C@H]1C[C@H]3[C@H](N(C)C)C(O)=C(C(N)=O)C(=O)[C@@]3(O)C(O)=C1C2=O [TIGECYCLINE]
MIC [7]: 0.25 µg/mL (≈ 0.427 µM)
MIC50 [7]: 0.25 µg/mL (≈ 0.427 µM)
MIC90 [7]: 2 µg/mL (≈ 3.41 µM)
MIC [8]: 0.25 µg/mL (≈ 0.427 µM)
MIC [9]: 0.5 µg/mL (≈ 0.854 µM)
MIC [10]: 0.25 µg/mL (≈ 0.427 µM)
MIC [11]: 0.25 µg/mL (≈ 0.427 µM)
MIC [12]: 0.06 µg/mL (≈ 0.102 µM)
MIC [13]: 0.12 µg/mL (≈ 0.205 µM)
MIC [14]: 0.12 µg/mL (≈ 0.205 µM)
MIC [15]: 0.25 µg/mL (≈ 0.427 µM)
MIC [16]: 0.06 µg/mL (≈ 0.102 µM)
MIC [17]: 0.06 µg/mL (≈ 0.102 µM)
MIC50 [18]: 0.25 µg/mL (≈ 0.427 µM)
MIC90 [18]: 0.5 µg/mL (≈ 0.854 µM)

CNc1cc(F)cc2c(O)c(C(=O)Nc3ccc(C(=O)O)cc3CN3CCCCC3)c(=O)[nH]c12.O=C(O)C(F)(F)F
IC50 [19]: 7.53 nM
IC50 [20]: 4930 nM
MIC [10]: 8 µg/mL
MIC [21]: ≤ 0.015 µg/mL
MIC [12]: 1 µg/mL
MIC [14]: 0.12 µg/mL
MIC [16]: 0.5 µg/mL
MIC [17]: 0.5 µg/mL
MIC [22]: 0.12 µg/mL

CCC[C@@H]1C[C@@H](C(=O)N[C@@H]([C@H]2O[C@H](SC)[C@H](O)[C@@H](O)[C@H]2O)[C@H](C)Cl)N(C)C1 [CLINDAMYCIN]
MIC [23]: 8 µg/mL (≈ 18.8 µM)
MIC [1]: 0.25 µg/mL (≈ 0.588 µM)
MIC [2]: 1 µg/mL (≈ 2.35 µM)
MIC [3]: 0.03 µg/mL (≈ 0.0706 µM)
MIC [4]: ≤ 0.015 µg/mL

CNc1cc(F)cc2cc(C(=O)Nc3ccc(CO)cc3CN(CCO)C3CCCCC3)c(=O)[nH]c12
MIC [8]: 1 µg/mL (≈ 2.01 µM)
MIC [9]: 2 µg/mL (≈ 4.03 µM)
IC50 [19]: 1.6 nM
MIC [21]: ≤ 0.03 µg/mL
MIC [11]: 1 µg/mL (≈ 2.01 µM)
MIC [13]: 0.25 µg/mL (≈ 0.503 µM)
MIC [14]: 0.03 µg/mL (≈ 0.0604 µM)
MIC [15]: 0.015 µg/mL (≈ 0.0302 µM)
MIC [16]: 0.06 µg/mL (≈ 0.121 µM)
MIC [17]: 0.06 µg/mL (≈ 0.121 µM)
IC50 [24]: > 100000 nM
cytotoxicity at 48 h, 10 µM ([25]; hepg2): -15.3%
cytotoxicity at 48 h, 50 µM ([26]; hepg2): 98.5%
MIC [2]: > 32 µg/mL
MIC [3]: > 32 µg/mL
MIC [4]: 4 µg/mL (≈ 8.06 µM)

CCCCCN(CCCCC)Cc1cc(C(=O)O)ccc1NC(=O)c1cc2cc(F)cc(NC)c2[nH]c1=O
MIC [8]: 0.5 µg/mL (≈ 0.953 µM)
MIC [9]: 0.5 µg/mL (≈ 0.953 µM)
IC50 [19]: 0.8 nM
MIC [21]: ≤ 0.03 µg/mL
MIC [11]: 0.06 µg/mL (≈ 0.114 µM)
MIC [12]: 0.06 µg/mL (≈ 0.114 µM)
MIC [14]: 0.015 µg/mL (≈ 0.0286 µM)
MIC [15]: 0.015 µg/mL (≈ 0.0286 µM)
MIC [16]: 0.015 µg/mL (≈ 0.0286 µM)
MIC [22]: 0.25 µg/mL (≈ 0.477 µM)
IC50 [24]: > 100000 nM
cytotoxicity at 48 h, 10 µM ([25]; hepg2): 8.11%
cytotoxicity at 48 h, 50 µM ([26]; hepg2): 46.7%
MIC [1]: 0.12 µg/mL (≈ 0.229 µM)
MIC [2]: > 32 µg/mL
MIC [4]: 0.12 µg/mL (≈ 0.229 µM)
MIC [5]: 1 µg/mL (≈ 1.91 µM)

CO[C@@H]1[C@@H](OC(N)=O)[C@@H](O)[C@H](Oc2ccc3c(O)c(NC(=O)c4ccc(O)c(CC=C(C)C)c4)c(=O)oc3c2C)OC1(C)C [NOVOBIOCIN]
MIC [27]: 64 µg/mL (≈ 104 µM)
MIC [28]: 0.13 µg/mL (≈ 0.212 µM)

CNc1cc(F)cc2c(O)c(C(=O)Nc3ccc(C(=O)NS(=O)(=O)N(C)C)cc3)c(=O)[nH]c12
MIC [8]: 1 µg/mL (≈ 2.09 µM)
MIC [9]: 1 µg/mL (≈ 2.09 µM)
IC50 [19]: 2.66 nM
IC50 [20]: 127 nM
MIC [10]: 1 µg/mL (≈ 2.09 µM)
MIC [21]: ≤ 0.015 µg/mL
MIC [12]: 0.03 µg/mL (≈ 0.0628 µM)
MIC [13]: 0.03 µg/mL (≈ 0.0628 µM)
MIC [14]: 0.015 µg/mL (≈ 0.0314 µM)
MIC [15]: 0.015 µg/mL (≈ 0.0314 µM)
MIC [16]: 0.06 µg/mL (≈ 0.126 µM)
MIC [17]: 0.12 µg/mL (≈ 0.251 µM)
MIC [22]: ≤ 0.015 µg/mL
IC50 [24]: 20900 nM
IC50 [29]: > 30000 nM
cytotoxicity at 48 h, 10 µM ([25]; HepG2 cells): 3.61%
cytotoxicity at 48 h, 50 µM ([26]; HepG2 cells): 38%

CNc1cc(F)cc2cc(C(=O)Nc3ccc(C(=O)O)cc3CN3CCCCC3)c(=O)[nH]c12
MIC [8]: 4 µg/mL (≈ 8.84 µM)
MIC [9]: 4 µg/mL (≈ 8.84 µM)
IC50 [19]: 0.31 nM
IC50 [20]: 15.3 nM
MIC [10]: 8 µg/mL (≈ 17.7 µM)
MIC [21]: ≤ 0.03 µg/mL
MIC [11]: 4 µg/mL (≈ 8.84 µM)
MIC [12]: 0.03 µg/mL (≈ 0.0663 µM)
MIC [13]: 0.015 µg/mL (≈ 0.0332 µM)
MIC [14]: 0.015 µg/mL (≈ 0.0332 µM)
MIC [15]: 0.015 µg/mL (≈ 0.0332 µM)
MIC [16]: 0.03 µg/mL (≈ 0.0663 µM)
MIC [17]: 0.03 µg/mL (≈ 0.0663 µM)
MIC [22]: 0.06 µg/mL (≈ 0.133 µM)

CNc1cccc2cc(C(=O)Nc3ccc(C(=O)O)cc3)c(=O)[nH]c12
IC50 [20]: 980 nM
MIC [27]: 64 µg/mL (≈ 190 µM)
MIC [28]: 16 µg/mL (≈ 47.4 µM)
MIC [21]: < 0.03 µg/mL

CNc1cc(F)cc2cc(C(=O)Nc3ccc(C(=O)NS(=O)(=O)N(C)C)cc3)c(=O)[nH]c12
IC50 [19]: 0.43 nM
IC50 [20]: 51.9 nM
MIC [10]: 16 µg/mL (≈ 34.7 µM)
MIC [21]: ≤ 0.015 µg/mL
MIC [12]: 0.06 µg/mL (≈ 0.13 µM)
MIC [14]: 0.03 µg/mL (≈ 0.065 µM)
MIC [16]: 0.06 µg/mL (≈ 0.13 µM)
MIC [17]: 0.12 µg/mL (≈ 0.26 µM)
MIC [22]: 0.06 µg/mL (≈ 0.13 µM)

CNc1cc(F)cc2cc(C(=O)Nc3ccc(C(=O)O)cc3CN(CCO)C3CCCCC3)c(=O)[nH]c12.Cl
MIC [8]: 1 µg/mL
MIC [9]: 1 µg/mL
IC50 [19]: 0.29 nM
IC50 [20]: 23.4 nM
MIC [10]: 4 µg/mL
MIC [21]: ≤ 0.03 µg/mL
MIC [11]: 0.5 µg/mL
MIC [12]: 0.015 µg/mL
MIC [13]: 0.015 µg/mL
MIC [14]: 0.008 µg/mL
MIC [15]: 0.008 µg/mL
MIC [16]: 0.015 µg/mL
MIC [17]: 0.008 µg/mL
MIC [22]: 0.06 µg/mL
IC50 [24]: > 100000 nM
IC50 [29]: > 30000 nM
cytotoxicity at 48 h, 10 µM ([25]; HepG2 cells): -2.04%
cytotoxicity at 48 h, 50 µM ([26]; HepG2 cells): 7.76%
MIC [23]: 1 µg/mL
MIC [1]: 0.12 µg/mL
MIC [2]: > 32 µg/mL
MIC [3]: > 32 µg/mL
MIC [4]: 0.12 µg/mL
MIC [5]: 0.12 µg/mL
